pIC50: −log10 of the molar value. A value given as a limit tells only on which side of the number the result lay.

For one test, the target named is T1, SCD1 (Homo sapiens, UniProt O00767).
T1 construct: host or cells: S. cerevisiae ole1Δ strain (W303 pdr1Δ pdr3Δ background), plasmid pRS316 with TDH3 promoter and CYC1 terminator
T1 sequence (O00767 1-359): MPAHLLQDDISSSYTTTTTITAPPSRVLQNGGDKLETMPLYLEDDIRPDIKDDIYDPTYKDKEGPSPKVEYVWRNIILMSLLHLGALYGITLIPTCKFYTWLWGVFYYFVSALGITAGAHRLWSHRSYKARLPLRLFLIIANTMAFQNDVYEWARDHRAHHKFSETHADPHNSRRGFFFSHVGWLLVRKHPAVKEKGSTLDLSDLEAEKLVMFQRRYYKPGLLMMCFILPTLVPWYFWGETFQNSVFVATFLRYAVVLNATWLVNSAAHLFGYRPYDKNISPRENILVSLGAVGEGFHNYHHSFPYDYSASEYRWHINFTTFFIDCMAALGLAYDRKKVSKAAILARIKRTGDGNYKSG
The test is described as follows: Growth inhibition of humanized yeast strain expressing SCD1 as sole desaturase. Format: cell-based. In outline:
(§1)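 ole1Δ yeast (W303 pdr1Δ pdr3Δ background) carrying plasmid-borne Ole1, SCD1 or SCD5, grown in uracil-free media; cultures pre-grown in raffinose, seeded at 2× density 0.02 in galactose media with compound. Growth read as OD600 after 24 h at 30° C. for Ole1, 40 h for SCD1/SCD5.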

For another test, the target named is T2, SCD5 (Homo sapiens, UniProt Q86SK9).
T2 construct: host or cells: S. cerevisiae ole1Δ strain (W303 pdr1Δ pdr3Δ background), plasmid pRS316 with TDH3 promoter and CYC1 terminator
T2 sequence (Q86SK9 1-330): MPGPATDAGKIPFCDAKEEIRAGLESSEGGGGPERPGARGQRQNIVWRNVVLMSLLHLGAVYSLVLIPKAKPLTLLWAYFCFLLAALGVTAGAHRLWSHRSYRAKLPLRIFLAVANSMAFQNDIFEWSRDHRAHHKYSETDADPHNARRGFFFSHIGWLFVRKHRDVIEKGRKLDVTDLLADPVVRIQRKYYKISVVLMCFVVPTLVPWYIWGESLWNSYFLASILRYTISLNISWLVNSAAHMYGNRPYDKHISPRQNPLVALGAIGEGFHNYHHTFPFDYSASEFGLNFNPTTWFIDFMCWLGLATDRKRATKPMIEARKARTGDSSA
The test is described as follows: Growth inhibition of humanized yeast strain expressing SCD5 as sole desaturase. Type of test: cell-based. In outline: as §1

Where [1] appears, read: growth inhibition of humanized yeast strain expressing human SCD1.
The mark [2] stands for this setting: growth inhibition of humanized yeast strain expressing human SCD5.

By pIC50 is commonly meant the negative decadic logarithm of the IC50, by convention in mol/L. A lower pIC50 goes with a large IC50. With `CC(C)(C)OC(=O)N1C[C@@H]2[C@H](C1)[C@H]2NC(=O)OCc1ccccc1` [Compound 774], the pIC50 is below 4.35 against SCD1 (humanized yeast strain, 40 h) and below 4.35 at SCD5 (humanized yeast strain, 40 h).
Regarding `CC(C)(C)OC(=O)N1CCN(c2noc(-c3ccc4cnn(C5CNC5)c4c3)n2)CC1` [Compound 932], the pIC50 on SCD1 (humanized yeast strain, 40 h) was below 4.35; against SCD5 (humanized yeast strain, 40 h), 8.00.
For the compound `CC(C)n1ncc2ccc(-c3noc(C4CCN(C(=O)C5(C)CCCO5)CC4)n3)cc21` (stereo not shown) [Compound 703], the results for the pIC50 on SCD1 (setting [1]) and against SCD5 (setting [2]) were below 4.35 and 6.92, respectively.
Regarding `CC(C)(C)OC(=O)N1CCCN(c2noc(-c3ccc4cnn(C5COC5)c4c3)n2)CC1` [Compound 854], the pIC50 against SCD1 (humanized yeast strain, 40 h) was 4.84; against SCD5 (humanized yeast strain, 40 h) it was 8.00.
For the compound `CCC(=O)N1CCC(c2cc(-c3cc4c(cn3)cnn4C3COC3)no2)CC1` [Compound 1147], the pIC50 is below 4.35 against SCD1 (humanized yeast strain, 40 h) and 5.26 on SCD5 (humanized yeast strain, 40 h).
As to `CC(C)C(=O)N1CCC(c2nc(-c3ccnc(F)c3)no2)CC1` [Compound 1124], the pIC50 on SCD1 (humanized yeast strain, 40 h) was below 4.35; against SCD5 (humanized yeast strain, 40 h), below 4.35.
Consider `COC(=O)N1CCC(F)(c2noc(-c3ccc4cnn(C5COC5)c4c3)n2)CC1` [Compound 892], for which the pIC50 on SCD1 (humanized yeast strain, 40 h) is below 4.35; against SCD5 (humanized yeast strain, 40 h) it was 8.00.
Take `CC(C)n1ncc2ccc(-c3noc(C4CCN(C(=O)C5CC(=O)N(C)C5(C)C)CC4)n3)cc21` (stereo not shown) [Compound 616]: the pIC50 on SCD1 (setting [1]) and against SCD5 (setting [2]) was below 4.35 each time.
With `O=C(C1CC1)N1CCN(c2noc(-c3ccnc(NC4COC4)c3)n2)CC1` [Compound 1117], the pIC50 against SCD1 (humanized yeast strain, 40 h) was below 4.35; against SCD5 (humanized yeast strain, 40 h) it was below 4.35.
In the case of `CC(C)n1ncc2ccc(-c3noc(C4CCN(Cc5ncco5)CC4)n3)cc21` [Compound 615], the pIC50 against SCD1 (setting [1]) is 6.07; on SCD5 (setting [2]), 5.73.
Regarding `C[C@H]1C[C@H](c2noc(-c3ccc4cnn(C5COC5)c4c3)n2)CCN1C(=O)OC(C)(C)C` [Compound 1018], the pIC50 was 4.69 against SCD1 (humanized yeast strain, 40 h) and 8.00 against SCD5 (humanized yeast strain, 40 h).
As to `CC(C)c1nccn2cc(-c3nc(C4CCN(C(=O)OC(C)(C)C)CC4)no3)cc12` [Compound 901], the pIC50 at SCD1 (humanized yeast strain, 40 h) is below 4.35; against SCD5 (humanized yeast strain, 40 h) it was below 4.35.
For the compound `COC(=O)N1CCC(c2nc(-c3ccc4cnn([C@@H]5CCOC5)c4c3)no2)CC1` [Compound 907], the pIC50 was below 4.35 on SCD1 (humanized yeast strain, 40 h) and 7.40 against SCD5 (humanized yeast strain, 40 h).
On to `CC(=O)N1CC(CC(=O)N2CCC(c3nc(-c4ccc5c(C)nn(C)c5c4)no3)CC2)C1` [Compound 638], for which the pIC50 at SCD1 (setting [1]) and at SCD5 (setting [2]) was below 4.35 throughout.
For the compound `CNC(=O)OC1CCC(c2nc(-c3ccc4cnn(C(C)C)c4c3)no2)CC1` (stereo not shown) [Compound 608], the negative logarithm of the IC50 (pIC50) against SCD1 (setting [1]) and at SCD5 (setting [2]) was below 4.35 in each case.
Consider `C[C@@H]1C[C@@H](c2noc(-c3ccc4cnn(C5COC5)c4c3)n2)CCN1C(=O)OC(C)(C)C` [Compound 1019], for which the pIC50 was 4.91 on SCD1 (humanized yeast strain, 40 h) and 8.00 at SCD5 (humanized yeast strain, 40 h).
Taken in the same sequence, the figures for `CC(C)(C)OC(=O)N1CCC(c2ccc(-c3ccc4cnn(C5COC5)c4c3)cn2)CC1` [Compound 966] were below 4.35 and 6.82.
Turning to `CC(C)n1ncc2ccc(-c3noc(C4CCN(C(=O)C5CCCN5C)CC4)n3)cc21` (stereo not shown) [Compound 706], the pIC50 against SCD1 (setting [1]) and against SCD5 (setting [2]) was below 4.35 each time.
For the compound `O=C(c1sccc1Cl)N1CCC(c2noc(-c3ccc4cnn(C5COC5)c4c3)n2)CC1` [Compound 698], the results for the pIC50 against SCD1 (setting [1]) and at SCD5 (setting [2]) were below 4.35 and 7.59, respectively.
For `CC(C)(C)OC(=O)N1CCC(c2noc(-c3ccnc(CC4CC4)c3)n2)CC1` [Compound 1082], the pIC50 against SCD1 (humanized yeast strain, 40 h) was below 4.35; on SCD5 (humanized yeast strain, 40 h) it was 6.44.
Consider `CC(C)(C)OC(=O)N1CCC(c2noc(-c3ccnc(C4CCCO4)c3)n2)CC1` (stereo not shown) [Compound 1003], for which the pIC50 is below 4.35 against SCD1 (humanized yeast strain, 40 h) and 6.34 on SCD5 (humanized yeast strain, 40 h).
On to `CC(C)(C)OC(=O)N1CCC(c2nc(-c3ccn4cnc(C#N)c4c3)no2)CC1` [Compound 833], for which the pIC50 is below 4.35 against SCD1 (humanized yeast strain, 40 h) and below 4.35 at SCD5 (humanized yeast strain, 40 h).
Turning to `COC(=O)N1CC(c2noc(-c3ccc4cnn(C5COC5)c4c3)n2)C1` [Compound 928], the pIC50 at SCD1 (humanized yeast strain, 40 h) is below 4.35; on SCD5 (humanized yeast strain, 40 h), 8.00.

(Values after patent US11873298B2, “Compounds and uses thereof” (JANSSEN PHARMACEUTICA NV, priority 2017, dated 2024).)
